# Data from publication PMC11195807, “Development of a multi-targeted chemotherapeutic approach based on G-quadruplex stabilisation and carbonic anhydrase inhibition” (Journal of Enzyme Inhibition and Medicinal Chemistry, 2024).
# “And” between values parts separate entries of the source, which are not always exact repeats. Equal values may be shown once.
# Tests used:
# hCA I = target: T1, hCA I (Homo sapiens, UniProt P00915); test: stopped-flow CO2 hydrase assay, hCA I; type: biochemical
# T1 construct: made in house
# T1 sequence (P00915 whole entry): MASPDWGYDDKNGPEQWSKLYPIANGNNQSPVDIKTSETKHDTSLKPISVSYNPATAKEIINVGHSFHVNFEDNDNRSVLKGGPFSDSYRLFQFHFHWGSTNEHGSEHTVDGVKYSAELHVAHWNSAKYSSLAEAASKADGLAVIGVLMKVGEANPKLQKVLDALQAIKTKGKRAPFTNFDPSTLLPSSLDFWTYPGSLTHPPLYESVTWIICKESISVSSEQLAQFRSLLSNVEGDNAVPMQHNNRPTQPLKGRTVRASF
# Procedure: (§1) An Applied Photophysics stopped-flow instrument has been used for assaying the CA-catalysed CO2 hydration activity, as reported earlier. The enzyme concentrations were in the range 5–12 nM. All hCA isoforms were recombinant proteins, being obtained in-house as reported earlier.
# hCA II = target: T2, hCA II (Homo sapiens, UniProt P00918); test: stopped-flow CO2 hydrase assay, hCA II; type: biochemical
# T2 construct: made in house
# Source text: . The structure-activity relationship is discussed separately for the two compound subsets. Another code pattern is included for the MTDLs in Table 1, which indicates the derivative CAI type (sulphonamide, S or coumarin, C) and the number of atoms in the spacers connecting either berberine and the triazole (carbon atoms) or the triazole and the benzenesulfonamide/coumarin scaffolds (carbon or oxygen atoms).
# as §1
# hCA IX = target: T3, hCA IX (Homo sapiens, UniProt Q16790); test: stopped-flow CO2 hydrase assay, hCA IX; type: biochemical; settings: for Ki: mean ± SEM of three assays; for Selectivity index (SI) I/IX: hCA IX over hCA I; for Selectivity index (SI) II/IX: hCA IX over hCA II
# T3 construct: made in house
# Source text: (§2) An Applied Photophysics stopped-flow instrument has been used for assaying the CA-catalysed CO2 hydration activity, as reported earlier. […] All hCA isoforms were recombinant proteins, being obtained in-house as reported earlier.
# hCA XII = target: T4, hCA XII (Homo sapiens, UniProt O43570); test: stopped-flow CO2 hydrase assay, hCA XII; type: biochemical; settings: for Ki: mean ± SEM of three assays; for Selectivity index (SI) I/XII: hCA XII over hCA I; for Selectivity index (SI) II/XII: hCA XII over hCA II
# T4 construct: made in house
# T4 sequence (O43570 25-354): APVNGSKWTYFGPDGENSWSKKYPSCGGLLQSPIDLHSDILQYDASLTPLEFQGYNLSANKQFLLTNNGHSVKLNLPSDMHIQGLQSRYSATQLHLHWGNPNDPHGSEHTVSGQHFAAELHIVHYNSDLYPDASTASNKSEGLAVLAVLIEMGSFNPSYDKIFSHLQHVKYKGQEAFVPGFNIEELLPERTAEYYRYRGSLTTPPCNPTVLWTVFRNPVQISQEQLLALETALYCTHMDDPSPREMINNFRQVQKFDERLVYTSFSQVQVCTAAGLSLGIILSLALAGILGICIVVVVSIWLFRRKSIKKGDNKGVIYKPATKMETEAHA
# Source text: as §2
# Tel23 = test: CD melting experiments, Tel23 GQ; type: binding, human; settings: for ΔT1/2 Tel23: 2 molar equiv compound, T1/2 of DNA alone 53.5 °C; for ΔΔT1/2 Tel23: ΔT1/2 of compound minus ΔT1/2 of berberine, 2 molar equiv
# Source text: (§3) The 21 synthesised MTDLs were screened for their ability to bind to and stabilise DNA GQ-forming sequences, compared to berberine, by CD experiments. Indeed, circular dichroism has shown to be outstandingly useful and informative for noncanonical nucleic acid secondary structures. For this purpose, a G-rich 23-nucleotide truncation (23-nt) of the human telomeric sequence (Tel23) and two G-rich motifs from the promoter regions of c-KIT (c-Kit1) and c-MYC (c-Myc) oncogenes were employed. First, the overall topology adopted by each DNA sequence in K^+-containing buffer was verified by CD spectra. […] GQ conformation (Figure S1, Supporting Information). On the other hand, c-Kit1 and c-Myc sequences adopted a parallel GQ conformation, showing a distinctive positive band at around 260 nm and a negative one at ∼240 nm in their CD spectra (Figures S2 and S3, Supporting Information).
# (§4) Afterwards, the GQ-stabilising properties of the molecules were assessed by CD melting experiments, measuring the differences in the apparent melting temperatures of the DNA in the presence and absence of compounds (ΔT1/2) (Figures S4–S6 and Table S2, Supporting Information). […] This could be explained by considering the higher accessibility of the external G-tetrads in the case of parallel GQs compared to the hybrid one[52], which would allow the additional CAI moiety of conjugated compounds to be better accommodated in the binding site. […] . […] .
# c-Kit1 = test: CD melting experiments, c-Kit1 GQ; type: binding; settings: for ΔT1/2 c-Kit1: 2 molar equiv compound, T1/2 of DNA alone 55.0 °C; for ΔΔT1/2 c-Kit1: ΔT1/2 of compound minus ΔT1/2 of berberine, 2 molar equiv
# Source text: as §3, §4
# c-Myc = test: CD melting experiments, c-Myc GQ; type: binding; settings: for ΔΔT1/2 c-Myc: ΔT1/2 of compound minus ΔT1/2 of berberine, 1 molar equiv; for ΔT1/2 c-Myc: 1 molar equiv compound, T1/2 of DNA alone 70.0 °C
# Source text: as §3, §4
# Hairpin = test: CD melting experiments, hairpin DNA duplex; settings: 2 molar equiv compound, T1/2 of DNA alone 66.0 °C
# Procedure: To evaluate the possible binding and stabilisation of double-stranded DNA, a 27-nt long hairpin-forming sequence (Hairpin) was employed.
# In particular, the following DNA sequences were synthesised and employed for the experiments: d([sequence]) (c-Kit1), d([sequence]) (c-Myc), d([sequence]) (Tel23), and d([sequence]) (Hairpin). Oligonucleotides were dissolved in the proper buffer and their concentration was measured by UV absorption at 90 °C, as previously reported[80]^,[81]. To achieve the correct folding of the sequences, the DNA solutions were heated in a water bath at 90 °C for 5 min, and then allowed to cool slowly to room temperature overnight. Then, DNA samples were stored at 4 °C for 24 h, before data acquisition.
# The samples were prepared by dissolving the oligonucleotides in 5 mM KH2PO4/K2HPO4 buffer (pH 7.0) containing 20 mM KCl (or LiCl in the case of c-Myc because of its high thermal stability). DNA concentrations of 20 µM for GQs and 30 µM for Hairpin were used. For each compound, a 10 mM stock solution in 100% DMSO was prepared. […] CD spectra were acquired at 20 and 100 °C, in the 230–320 nm wavelength range, averaged over three scans and subtracted of the buffer baseline. The scanning speed was set to 100 nm/min, with a 0.5 s response time, and 1 nm bandwidth. CD melting experiments were carried out in the 20–100 °C temperature range, with 1 °C/min heating rate, by following changes in the CD signal at the wavelengths of the maximum CD intensity (i.e. 263 nm for c-Kit1 and c-Myc, and 290 nm for Tel23). As for Hairpin, CD melting curves were recorded by following the changes in the CD signal at 252 nm (the wavelength of the minimum CD intensity). CD melting curves were normalised between 0 and 1. […] The ΔT1/2 values correspond to the difference in the T1/2 values of the nucleic acid structures in the presence and absence of the compounds. All experiments were performed in duplicate, and the reported values are the mean of the two measurements.
# [1] = coumarins, inhibitor-enzyme incubation 6 h
# [2] = sulphonamides, inhibitor-enzyme incubation 15 min, mean ± SEM of three assays
# [3] = sulphonamides, inhibitor-enzyme incubation 15 min
Compound,Ki (hCA I; [1]),Ki (hCA II; [1]),Ki (hCA IX; [1]),Selectivity index (SI) I/IX (hCA IX),Selectivity index (SI) II/IX (hCA IX),Ki (hCA XII; [1]),Selectivity index (SI) I/XII (hCA XII),Selectivity index (SI) II/XII (hCA XII),ΔT1/2 Tel23 (Tel23),ΔΔT1/2 Tel23 (Tel23),ΔT1/2 c-Kit1 (c-Kit1),ΔΔT1/2 c-Kit1 (c-Kit1),ΔΔT1/2 c-Myc (c-Myc),ΔT1/2 Hairpin (Hairpin),ΔT1/2 c-Myc (c-Myc),Ki (hCA I; [2]),Ki (hCA II; [2]),Ki (hCA IX; [3]),Ki (hCA XII; [3]),also measured
"COc1ccc2cc3[n+](cc2c1OCc1cn(-c2ccc4c(C)cc(=O)oc4c2)nn1)CCc1cc2c(cc1-3)OCO2 [Compound 45, 10-Methoxy-9-((1–(4-methyl-2-oxo-2H-chromen-7-yl)-1H-1,2,3-triazol-4-yl)methoxy)-5,6-dihydro-[1,3]dioxolo[4,5-g]isoquinolino[3,2-a]isoquinolin-7-ium hexafluorophosphate]",> 100000 nM,> 100000 nM,51.5 ± 3.6 nM,> 194.2,> 194.2,5.4 ± 0.3 nM,> 1852,> 1852,7.0 °C,−2.5 °C,16.5 °C,3.5 °C,>13.0 °C,+2.5 °C,–,–,–,–,–,"ΔΔT1/2 c-Myc (c-Myc; listed as C-1,0c): > 13.0 °C"
"COc1ccc2cc3[n+](cc2c1OCc1cn(CCCCOc2ccc4ccc(=O)oc4c2)nn1)CCc1cc2c(cc1-3)OCO2 [Compound 43, 10-Methoxy-9-((1–(4-((2-oxo-2H-chromen-7-yl)oxy)butyl)-1H-1,2,3-triazol-4-yl)methoxy)-5,6-dihydro-[1,3]dioxolo[4,5-g]isoquinolino[3,2-a]isoquinolin-7-ium hexafluorophosphate]",> 100000 nM,> 100000 nM,25.5 ± 1.5 nM,> 392.2,> 392.2,4.2 ± 0.3 nM,> 2381,> 2381,7.0 °C,−2.5 °C,16.5 °C,3.5 °C,2.0 °C,-0.5 °C,14.0 °C,–,–,–,–,–
"COc1ccc2cc3[n+](cc2c1OCCCS(N)(=O)=O)CCc1cc2c(cc1-3)OCO2 [Compound 47, 10-methoxy-9–(3-sulfamoylpropoxy)-5,6-dihydro-[1,3]dioxolo[4,5-g]isoquinolino[3,2-a]isoquinolin-7-ium hexafluorophosphate]",–,–,–,4.2,1.2,–,2.1,0.6,6.5 °C,−3.0 °C,15.5 °C,2.5 °C,0.5 °C,+2.0 °C,12.5 °C,75.1 ± 5.4 nM,21.5 nM and 22.1 nM,17.8 ± 0.9 nM,35.9 ± 2.1 nM,–
"COc1ccc2cc3[n+](cc2c1OCc1cn(-c2cccc(S(N)(=O)=O)c2)nn1)CCc1cc2c(cc1-3)OCO2 [Compound 40, 10-Methoxy-9-((1–(3-sulfamoylphenyl)-1H-1,2,3-triazol-4-yl)methoxy)-5,6-dihydro-[1,3]dioxolo[4,5-g]isoquinolino[3,2-a]isoquinolin-7-ium hexafluorophosphate]",–,–,–,941.1,23.1,–,148.0,3.6,5.5 °C,−4.0 °C,16.0 °C,3.0 °C,>13.0 °C,+0.2 °C,–,3670 ± 22 nM,90.1 ± 5.6 nM,3.9 ± 0.2 nM,24.8 ± 1.3 nM,"ΔΔT1/2 c-Myc (c-Myc; listed as S-1,0m): > 13.0 °C"
"COc1ccc2cc3[n+](cc2c1OCCn1cc(COc2ccc(S(N)(=O)=O)cc2)nn1)CCc1cc2c(cc1-3)OCO2 [Compound 27, 10-Methoxy-9–(2-(4-((4-sulfamoylphenoxy)methyl)-1H-1,2,3-triazol-1-yl)ethoxy)-5,6-dihydro-[1,3]dioxolo[4,5-g]isoquinolino[3,2-a]isoquinolin-7-ium hexafluorophosphate]",–,–,–,1446,9.2,–,213.7,1.4,7.5 °C,−2.0 °C,18.5 °C,5.5 °C,6.5 °C,-0.5 °C,18.5 °C,940 ± 52.1 nM,6 nM,0.65 ± 0.05 nM,4.4 nM,–
"COc1ccc2cc3[n+](cc2c1OCCCn1cc(-c2ccc(S(N)(=O)=O)cc2)nn1)CCc1cc2c(cc1-3)OCO2 [Compound 28, 10-Methoxy-9–(3-(4–(4-sulfamoylphenyl)-1H-1,2,3-triazol-1-yl)propoxy)-5,6-dihydro-[1,3]dioxolo[4,5-g]isoquinolino[3,2-a]isoquinolin-7-ium hexafluorophosphate]",–,–,–,1194,91.5,–,62.3,4.8,6.0 °C,−3.5 °C,16.5 °C,3.5 °C,>13.0 °C,-2.0 °C,–,872 ± 55.9 nM,66.8 ± 3.9 nM,0.73 ± 0.04 nM,14 ± 1 nM,"ΔΔT1/2 c-Myc (c-Myc; listed as S-3,0): > 13.0 °C"
